Reference: PubChem BioAssay (NCI)
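Exposure lasted 48 hours, with cells grown in 96-well plates and compounds tested at five concentrations. Here, GI50 denotes the concentration required for 50% inhibition of growth. TGI denotes the concentration required for complete inhibition of growth.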

How the values were obtained:
Assay in all cases: NCI tumour cell line growth inhibition, 48 h
[1] = test system: 786-0 renal
[2] = test system: COLO 205 colon
[3] = test system: HOP-92 NSCLC
[4] = test system: K-562 leukemia
[5] = test system: MOLT-4 leukemia
[6] = test system: OVCAR-4 ovarian
[7] = test system: SK-MEL-28 melanoma
[8] = test system: U251 CNS
[9] = test system: UACC-62 melanoma
[10] = test system: SW-620 colon

| SMILES | TGI [1] | TGI [2] | TGI [3] | TGI [4] | TGI [5] | TGI [6] | TGI [7] | TGI [8] | TGI [9] | TGI [10] | GI50 [3] | GI50 [5] | GI50 [7] | GI50 [10] | GI50 [9] |
| --- | --- | --- | --- | --- | --- | --- | --- | --- | --- | --- | --- | --- | --- | --- | --- |
| O=C(O)CCC(NC(=O)c1ccc(Nc2nc3ccccc3nc2C(=O)O)cc1)C(=O)O (stereo not drawn) | > 100 µM | > 100 µM | > 100 µM | > 100 µM | > 100 µM | > 100 µM | > 100 µM | > 100 µM | > 100 µM | – | – | – | – | – | – |
| Clc1ccccc1/C=C/c1nsc(/C=C/c2ccccc2Cl)n1 | 39.1 µM | > 100 µM | > 100 µM | 48.5 µM | > 100 µM | > 100 µM | > 100 µM | > 100 µM | – | – | – | – | – | – | – |
| CNNC1=NS(=O)(=O)c2cc(C)c(Cl)cc2S1 | > 10 µM | > 10 µM | – | > 10 µM | > 10 µM | > 10 µM | > 10 µM | > 10 µM | > 10 µM | > 10 µM | – | – | – | – | – |
| CC(O)c1c2c(cc3c1CC1(C3)Cc3cc4c(c(C(C)O)c3C1)CCC4)CCC2 (stereo not drawn) | 28.9 µM | 28.6 µM | 31.6 µM | 26.8 µM | 26.3 µM | 17.5 µM | – | 29.3 µM | 40.7 µM | – | – | – | – | – | – |
| CCOC(=O)c1ncoc1[C@H]1COC(C)(C)O1 | – | – | – | > 100 µM | > 100 µM | > 100 µM | – | > 100 µM | > 100 µM | > 100 µM | – | – | – | – | – |
| O=C1C=C(N2CCCC2)C=C(N2CCCC2)C1 | > 100 µM | > 100 µM | > 100 µM | > 100 µM | > 100 µM | – | > 100 µM | > 100 µM | > 100 µM | > 100 µM | – | – | – | – | – |
| O=S(=O)(c1cc(Cl)ccc1Cl)N1CCN(c2ccc(Cl)c(Cl)c2)CC1 | 34.3 µM | – | 35.4 µM | > 100 µM | > 100 µM | 32.4 µM | > 100 µM | 54.8 µM | – | > 100 µM | – | – | – | – | – |
| Cc1cc(C)c(S(=O)(=O)N[C@@H](/C=C(\Br)CO)C(C)C)c(C)c1 | > 100 µM | 31.8 µM | 75.5 µM | 50.4 µM | 75.3 µM | – | > 100 µM | > 100 µM | 28.2 µM | > 100 µM | – | – | – | – | – |
| COc1c(Cl)ccc(Cl)c1C(=O)NNC(=O)c1c(Cl)c(Cl)c(Cl)c(Cl)c1-c1nc2ccc(C(=O)c3ccccc3)cc2[nH]1 | > 100 µM | > 100 µM | > 100 µM | > 100 µM | > 100 µM | > 100 µM | > 100 µM | > 100 µM | – | > 100 µM | – | – | – | – | – |
| CC1=C2C(=O)O[C@@H](c3ccoc3)[C@]2(C)CCC1=O | > 100 µM | > 100 µM | > 100 µM | > 100 µM | > 100 µM | – | > 100 µM | > 100 µM | > 100 µM | > 100 µM | – | – | – | – | – |
| O=C(O)C(Cc1ccc2c(c1)CCC2)(Cc1ccc2c(c1)CCC2)C(=O)O | > 100 µM | > 100 µM | – | > 100 µM | > 100 µM | > 100 µM | > 100 µM | > 100 µM | > 100 µM | > 100 µM | – | – | – | – | – |
| CC(=O)Oc1ccccc1[C@H]1CC(=O)C[C@H](c2ccccc2OC(C)=O)C12C(=O)c1ccccc1C2=O | – | 54.3 µM | > 100 µM | 84 µM | > 100 µM | > 100 µM | 51.2 µM | > 100 µM | 30.9 µM | – | – | – | – | – | – |
| Cc1cc(S(N)(=O)=O)c(SCc2nc(N)nc(N(C)C)n2)cc1Cl | > 10 µM | > 10 µM | > 10 µM | > 10 µM | > 10 µM | > 10 µM | > 10 µM | > 10 µM | – | > 10 µM | – | – | – | – | – |
| O=C(O)c1cccc(S(=O)(=O)NN2C(=O)CSC2c2ccccc2)c1 (stereo not drawn) | > 100 µM | > 100 µM | > 100 µM | > 100 µM | > 100 µM | – | > 100 µM | > 100 µM | > 100 µM | > 100 µM | – | – | – | – | – |
| O=C1Nc2cccc3ncn(c23)C2=C1CCCC2 | > 100 µM | > 100 µM | – | > 100 µM | > 100 µM | – | > 100 µM | > 100 µM | > 100 µM | > 100 µM | – | – | – | – | – |
| Cc1c(C(=O)CSc2nc3ccc([N+](=O)[O-])cc3[nH]2)c(=O)n(-c2ccccc2)n1C | > 100 µM | > 100 µM | > 100 µM | – | > 100 µM | > 100 µM | > 100 µM | > 100 µM | – | > 100 µM | – | – | – | – | – |
| COc1cc([C@@H]2c3cc4c(cc3[C@H](OC3OC5COC(C(C)C)OC5C(O)C3O)C3COC(=O)[C@@H]32)OCO4)cc(OC)c1O (stereo partly drawn) | 22.1 µM | 19.9 µM | 27.5 µM | > 100 µM | > 100 µM | 37.6 µM | – | 10.5 µM | 24.7 µM | 22.5 µM | – | – | – | – | – |
| CC(C)C1CC=NN1C(=O)OC(C)(C)C (stereo not drawn) | > 100 µM | > 100 µM | > 100 µM | > 100 µM | > 100 µM | – | – | – | > 100 µM | > 100 µM | – | – | – | – | – |
| O/N=c1/ccn(O)c2ccccc12 | 10.3 µM | 4.74 µM | 8.65 µM | > 19.9 µM | – | 4.43 µM | 3.16 µM | 6.65 µM | 2.53 µM | 11.8 µM | – | – | – | – | – |
| O=C1CC2CC=C[C@H]3c4cc5c(cc4C(=O)N1C23)OCO5 (stereo partly drawn) | > 50 µM | > 50 µM | – | > 50 µM | > 50 µM | – | > 50 µM | > 50 µM | > 50 µM | > 50 µM | – | – | – | – | – |
| COc1cc(C2CC(c3cccc(Nc4ccncc4)c3)=NN2c2cc(Cl)cc(Cl)c2)cc(OC)c1OC (stereo not drawn) | – | – | 2.44 µM | – | 3.57 µM | – | 3.31 µM | – | 3.18 µM | 3.2 µM | 1.12 µM | 1.53 µM | 1.76 µM | 1.67 µM | 1.69 µM |
| N#Cc1ncn(-c2ccccc2)c1N | > 100 µM | > 100 µM | – | > 100 µM | > 100 µM | > 100 µM | > 100 µM | > 100 µM | > 100 µM | > 100 µM | – | – | – | – | – |
| COc1ccc(NC(=O)CC(=O)n2nc(C)c(N=Nc3ccc(C)c(C)c3)c2C)cc1 | > 100 µM | > 100 µM | 65.9 µM | – | > 100 µM | > 100 µM | > 100 µM | > 100 µM | > 100 µM | > 100 µM | – | – | – | – | – |
| ClC(Cl)(Cl)C1CCOC1n1nc2ccccc2n1 (stereo not drawn) | > 100 µM | > 100 µM | – | > 100 µM | > 100 µM | > 100 µM | – | > 100 µM | > 100 µM | – | – | – | – | – | – |
